Assay results from patent publication US20100331363A1, “TREATMENT OF MITOCHONDRIAL DISORDERS USING A FARNESYL TRANSFERASE INHIBITOR” (Link Medicine Corporation, priority 2008, published 2010).
Entries after “also recorded” stand apart in the source; their conditions may differ. Read-outs that look alike come from different tables or passages of the source.

Columns and labels:
LC3-II protein = LC3-II protein level in SH-SY5Y cells with or without bafilomycin A1; format: cell-based, human; details: bafilomycin A1 10 nM alone
Experimental: The observed increase in LC3-positive autophagosomes could result, in principle, from either an increased flux through the autophagy pathway or decreased autophagosome degradation (Pankiv, S., et al. J Biol Chem 282, 24131-24145 (2007); Kamada, Y., et al. J Cell Biol 150, 1507-1513 (2000)). […] In order to ascertain an increase in autophagic flux, cells were co-treated with LNK-754-TS and an inhibitor of autophagosome-lysosome fusion, bafilomycin A1 (10 nM). Bafilomycin treatment alone caused a 100% increase in the amount of LC3-II, consistent with the fact that it inhibits autophagosome degradation (FIG. 8c).

[1] = Pharmacokinetics of Zarnestra in C57BL/6 mice, oral; format: in vivo, mouse; details: oral 5 mg/kg single dose; for MRT: read-out: MRT(0-[…])
Experimental: LLOQ: brain 4 ng/g; plasma 50 ng/ml.
The pharmacokinetic profiles of LNK-754-TS and Zarnestra® were analyzed using methods known in the art. The results are shown in FIGS. 13-14 and the tables below.

[2] = system: autophagy-related gene transcripts; assay: mRNA of autophagy-related genes (Atg1, p62) in SH-SY5Y cells; format: cell-based, human; details: 100 nM, SH-SY5Y (FIG. 8d)
Experimental: (§1) Quantitative real-time PCR: Gene expression profiles were done by qPCR on series of known autophagy genes. RNA was extracted with Tri-reagent (Sigma), and cDNAs generated using iScript (Biorad). qPCR analysis was carried out in a 96 well plate using an iCycler (BioRad, Hercules, Calif.), and iQ SYBR Green Supermix (Biorad) according to the manufacturer's specifications.
Rapamycin is a well-characterized autophagy stimulator that acts through inhibition of mTOR, a kinase involved in nutrient signaling and regulation of cell growth and survival.

GGTase [3] = target: T1, GGTase (Homo sapiens, UniProt P49354+P53609); assay: GGTase inhibitory activity, general statement; format: biochemical; details: selective FTase inhibitors
LC3 mRNA = LC3 mRNA (qPCR) in SH-SY5Y cells; format: cell-based, human; details: 100 nM, 72 hr, SH-SY5Y
Experimental: (§2) Cell culture and immunocytochemistry: SH-SY5Y cells were grown in DMEM medium supplemented with 10% FBS and 1% pen/strep at 37° C. and 5% CO2. Cells were differentiated with 10 μM retinoic acid for 48 hr, then treated with the either rapamycin (100 nM or 1 μM) or with 100 nM of either LNK-754-TS or Tipifarnib for 48-72 hr. Cells were then fixed with 4% paraformaldehyde and stained for LC3 (Novus biological, NB100-2331, dilution 1:800) followed by secondary Alexa-564 anti-Rabbit (A-11011).
as §1
Such increases in LC3 mRNA levels are associated in the literature with stimulation of macroautophagy. This supports the hypothesis that at doses as low as 1 nM in this in vitro system there is stimulation of autophagy in these cells.
(§3) Autophagy was measured in a neuroblastoma cell culture system by three distinct approaches: quantitation of autophagy-related mRNA's, immunofluorescence microscopy of autophagosomes, and biochemical detection of the microtubule-associated protein 1 light chain 3 (LC3) a key protein that is required for autophagosome formation. Differentiated human neuroblastoma cells (SH-SY5Y) were treated for 72 hr with LNK-754-TS (0.01-100 nM), Zarnestra® (also referred to herein as tipifarnib) (100 nM) or rapamycin (1 μM).

human α-synuclein = assay: Masliah D-line α-synuclein transgenic mouse, α-synuclein immunoreactivity and ELISA; format: in vivo; details: α-synuclein transgenic mice vs vehicle
Experimental: Animals and treatments: Male and female human WT alpha-synuclein over-expressing transgenic mice^32 at 6 months of age were given vehicle (10% beta-cyclodextrin) or LNK-754-TS (0.09, 0.9 and 9 mg/kg) per oral gavage twice daily for 3 months or animals at 7 months of age were given vehicle (2.5% beta-cyclodextrin) or LNK-754-TS (2 mg/kg) once every three days for 3 months. Male and female TAU transgenic mice expressing TAU441 bearing the missense mutations V337M^50 and R406W under the control of the murine Thy-1 promoter with a CB6xC57BL/6 background were 5 months old at the time when the oral treatment for three months with LNK-754-TS (0.9 and 0.09 mg/kg) as well as vehicle (2.5% beta-cyclodextrin) was started. Female human APP/PS1 (APP (London V7171)/PS1(A246E)) over-expressing transgenic mice were treated with LNK-754-TS (0.9 mg/kg) or vehicle (2.5% beta-cyclodextrin) for 2 months or 12 days.
Immunohistochemistry and quantification of stained cells: For evaluation of α-synuclein immunoreactivity (IR), 5 sagittal cryo-cut sections (10 μm slice thickness) from five different layers were used for counting of IR cells in the cortex and hippocampus. Brain sections were stained with a monoclonal human α-synuclein specific antibody (Alexis®; Cat#804-258-L001; dilution 1:5), followed by a secondary Ab Cy 2-Goat Anti-Rat (Jackson ImmunoResearch®; dilution 1:200). IR positive cells were quantified using specialized image analysis software (Image Pro Plus, version 4.5.1.29). For Tau transgenic animals, 5 μm thick coronal paraffin sections were stained with the monoclonal mouse anti-human TAU-antibodies (AT180—1:100; HT7—1:500) and visualized using an anti-mouse Cy3 secondary antibody (1:500, Jackson Laboratories®). Images were evaluated with ImageProPlus (version 6.2) image analysis software. For APP/PS1 transgenic animals sagittal hemisections (40 μm) were collected and processed for Aβ immunohistochemistry using an 6E10 antibody, Thioflavin-S staining. Primary antibodies were detected by the ABC method.
ELISA quantification of α-Synuclein in the α-Synuclein transgenic animals: Brain homogenate was centrifuged and the supernatant saved as fraction F1. The pellet was washed then resuspended and saved as fraction F2. Plates (Nunc, 464718) were coated with SYN-1 (1:1000, BD Transduction Labs, 610787). Monomeric recombinant α-synuclein was included as an internal standard. Biotinylated antibody FL-140 (1:300, Santa Cruz Biotechnology, sc-10717-B) and ExtrAvidin-Alkaline phosphatase (3:5000, Sigma, E2636) was added followed by pNPP substrate solution (Sigma, N1891). Raw absorbance (405 nm) was then normalized to the total protein concentration of each sample. In the APP/PS1 transgenic animal, brains were homogenized and the supernatant, Faction 1, was separated from the pellet. The pellets were further processed with addition of NP40 and Triton X-100. The supernatant was separated from the pellet as the insoluble membrane, Fraction 2, and was dissolved in 8M Guanidine. To quantify the amount of human Aβ-40 and Aβ-42, ELISA kits were used (The Genetics Company, Zurich, Switzerland).
In FIG. 2 is shown efficacy data for LNK-754-TS in the Masliah D-line transgenic α-synuclein mouse (an accepted model of synucleinopathies). Two trials are shown, the first (FIG. 2A) at higher doses of LNK-754-TS: 45 mg/kg and 9 mg/kg. […] The second trial (FIG. 2B) explores the low dose range for efficacy in the α-synuclein models. Here, doses start as low as 0.9 mg/kg, and extend through 9 mg/kg, all below the efficacious dose range in the mouse oncology model.
After dosing with LNK-754-TS for three months (twice daily at 0.09 mg/kg or 0.9 mg/kg), α-synuclein accumulation in the brain was analyzed by immunohistochemical (human specific α-synuclein immunoreactivity) and biochemical (α-synuclein ELISA) means. […]

GGTase [4] = target: T1, GGTase; details: at 50 micromolar; cited from earlier work
[5] = system: LC3-positive puncta (autophagosomes); assay: LC3 immunostaining (LC3-positive puncta) in SH-SY5Y cells; format: cell-based, human; details: 100 nM, SH-SY5Y (FIG. 8b)
Experimental: as §2, §3

FTase = FTase (Homo sapiens, UniProt P49354+P49356); details: End et al., Cancer Research 2001; cited from earlier work

Question: Which “increase in the amount of LC3-II” value (LC3-II protein) does the source give for `CO/C1=C\C(C)=C\[C@@H](C)[C@@H](O)[C@@H](C)C/C(C)=C/C=C/[C@H](OC)[C@@H]([C@@H](C)[C@@H](O)[C@H](C)[C@@]2(O)C[C@@H](O)[C@H](C)[C@@H](C(C)C)O2)OC1=O` [Bafilomycin, bafilomycin A1, reference compound] here?
Answer: 100%

Question: Which results are given for `Cn1cncc1[C@@](N)(c1ccc(Cl)cc1)c1ccc2c(c1)c(-c1cccc(Cl)c1)cc(=O)n2C` [Zarnestra®, (R)-6-(Amino(4-chlorophenyl)(1-methyl-1H-imidazol-5-yl)methyl)-4-(3-chlorophenyl)-1-methyl-2(1H)-quinolinone]?
Answer: AUC(0-t) ([1]; Brain): 44.50 ng·h/g; AUC(0-[…]) ([1]; Brain): 86.86 ng·h/g; Cmax ([1]; mouse, Brain): 6.84 ng/g; Tmax ([1]; mouse, Brain): 1 h; half-life ([1]; mouse, Brain): 8.1 h; MRT ([1]; mouse, Brain): 11.4 h; Cmax ([1]; mouse, plasma, Blood): 40.4 ng/mL; Tmax ([1]; mouse, plasma, Blood): 1 h; half-life ([1]; mouse, plasma, Blood): 1.31 h; AUC(0-t) ([1]; mouse, plasma, Blood, read-out: AUC(0-t)): 130 ng·h/mL; AUC ([1]; mouse, plasma, Blood, read-out: AUC(0-[…])): 131 ng·h/mL; MRT ([1]; mouse, plasma, Blood): 1.76 h; mRNA levels of a set of autophagy-related genes (incl. Atg1) [2]: unaffected; GGTase inhibitory activity (GGTase [3]): little to no GGTase inhibitory activity; LC3 mRNA (LC3 mRNA): works in this assay; also recorded: upregulated; LC3 mRNA (LC3 mRNA; listed as tipifarnib): increased; levels of α-synuclein in the hippocampus (human α-synuclein): decrease levels of α-synuclein; α-synuclein inclusions (human α-synuclein): fewer α-synuclein inclusions; inhibition of geranylgeranylation of lamin B peptide substrate by GGTase (GGTase [4]): 40%; number of LC3-positive puncta [5]: distinct increase; number of LC3-positive puncta ([5]; listed as tipifarnib): increased; selectivity for FTase than GGTase (FTase): over 5,000 times
